These results are taken from publication PMC6944758 (The FEBS journal, 2019).

Experiment [1] concerns the target T1, ALDH7A1 (Homo sapiens, UniProt P49419).
T1 sequence (P49419 1-511 isoform P49419-2): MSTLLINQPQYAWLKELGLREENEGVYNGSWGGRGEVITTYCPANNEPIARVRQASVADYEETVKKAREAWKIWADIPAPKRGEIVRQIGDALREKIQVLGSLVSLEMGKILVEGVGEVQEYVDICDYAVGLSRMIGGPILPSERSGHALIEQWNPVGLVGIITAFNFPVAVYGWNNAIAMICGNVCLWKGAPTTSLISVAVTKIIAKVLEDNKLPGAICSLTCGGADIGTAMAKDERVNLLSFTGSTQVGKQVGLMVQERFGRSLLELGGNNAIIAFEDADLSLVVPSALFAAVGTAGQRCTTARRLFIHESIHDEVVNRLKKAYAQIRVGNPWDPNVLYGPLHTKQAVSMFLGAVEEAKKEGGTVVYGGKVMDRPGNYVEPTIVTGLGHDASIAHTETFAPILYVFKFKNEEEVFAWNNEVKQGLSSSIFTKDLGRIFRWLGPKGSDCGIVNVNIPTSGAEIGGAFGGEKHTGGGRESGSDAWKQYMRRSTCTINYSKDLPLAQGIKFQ
As to the kind of experiment: X-ray crystal structure, co-crystallization. The format is binding. Conditions: 15 mM NAD+, pH 6.8, 1.85 Å; Rossmann fold cofactor site.

For experiment [2], the target named is T1, ALDH7A1. Nature of the experiment: X-ray crystal structure, co-crystallization. The format is binding. Conditions: 175 mM PA, pH 7.2, 1.88 Å; aldehyde substrate site.

In the case of `NC(=O)c1ccc[n+]([C@@H]2O[C@H](COP(=O)(O)OP(=O)(O)OC[C@H]3O[C@@H](n4cnc5c(N)ncnc54)[C@H](O)[C@@H]3O)[C@@H](O)[C@H]2O)c1` [NAD^+], the “X-ray crystal structure, co-crystallization” value at ALDH7A1 [1] is “The structures of W175G and W175A complexed with NAD^+ were determined”. Consider `O=C(O)[C@@H]1CCCCN1` [PA, L-pipecolic acid], for which the “X-ray crystal structure, co-crystallization” value at ALDH7A1 [2] is given as “we obtained a structure of W175A complexed with the P6C analog L-pipecolic acid (PA)”.
